Assay results: patent publication US10640497B2, “Microbiocidal oxadiazole derivatives” (SYNGENTA PARTICIPATIONS AG, priority 2015, dated 2020)

Columns and labels:
Phakopsora pachyrhizi = assay: Fungicidal activity against Phakopsora pachyrhizi, soybean, leaf disc preventative (Asian soybean rust); assay type: in vivo; conditions: foliar, 288 h, 12-14 days after application, compared to untreated control
Outline: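 Soybean leaf discs on water agar were sprayed with compound diluted in water, then inoculated one day later with a spore suspension on the lower leaf surface. After 24-36 h dark at 20 °C, 75% rh, discs were held at 20 °C, 12 h light/day. Percent disease control versus untreated assessed 12-14 days post-application.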

[1] = system: Puccinia recondita f. sp. tritici; assay: Fungicidal activity against Puccinia recondita f. sp. tritici, wheat, leaf disc curative (brown rust); assay type: in vivo; conditions: foliar, 144 h, wheat leaf segments, curative (applied 1 day after inoculation), 6-8 days after application, compared to untreated control
Outline: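 Wheat cv. Kanzler leaf segments on agar, inoculated with brown rust spores and kept dark at 19 °C, 75% rh; formulated compound sprayed 1 day after inoculation (curative). Incubated 19 °C, 75% rh, 12 h light/dark; percent disease control vs untreated scored 6–8 days after application.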

[2] = system: Puccinia recondita f. sp. tritici; assay: Fungicidal activity against Puccinia recondita f. sp. tritici, wheat, leaf disc preventative (brown rust); assay type: in vivo; conditions: foliar, wheat leaf segments, preventative (inoculated 1 day after application), 7-9 days after application, compared to untreated control
Outline: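 Wheat cv. Kanzler leaf segments on water agar sprayed with compound (DMSO stock diluted in water), then inoculated with spore suspension 1 day later. Incubated at 19 °C, 75% rh, 12 h light/12 h dark; percent disease control versus untreated scored at 7-9 days after application.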

[3] = system: Glomerella lagenarium (Colletotrichum lagenarium); assay: Fungicidal activity against Glomerella lagenarium (Colletotrichum lagenarium), liquid culture, cucumber, preventative (anthracnose); assay type: cell-based; conditions: Colletotrichum orbiculare, liquid culture (PDB), growth inhibition measured photometrically 3-4 days after application, compared to untreated control
Outline: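 Glomerella lagenarium conidia in potato dextrose broth were exposed in 96-well plates to test compound diluted from DMSO stock with 0.025% Tween20 and incubated at 24 °C. Growth inhibition was read photometrically 3–4 days after application, as percent activity relative to untreated check.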

Row | melting point [°C] | SMILES | pest or weed control at 200 ppm (Phakopsora pachyrhizi) [%] | pest or weed control at 200 ppm [1] [%] | pest or weed control at 200 ppm [2] [%] | inhibition of growth at 20 ppm [3] [%]
1 | 155 to 160 | CS(=O)(=O)N1CCN(Cc2ccc(-c3noc(C(F)(F)F)n3)cc2)C(=O)C1 [Compound A-41, 4-methylsulfonyl-1-[[4-[5-(trifluoromethyl)-1,2,4-oxadiazol-3-yl]phenyl]methyl]piperazin-2-one] | ≥ 80 | ≥ 80 | ≥ 80 | ≥ 80
2 | 104 to 108 | O=C1CCCC(=O)N1Cc1ccc(-c2noc(C(F)(F)F)n2)cc1 [Compound A-49, 1-[[4-[5-(trifluoromethyl)-1,2,4-oxadiazol-3-yl]phenyl]methyl]piperidine-2,6-dione] | ≥ 80 | ≥ 80 | ≥ 80 | ≥ 80
3 | 113 to 117 | O=C1CCC(=O)N1Cc1ccc(-c2noc(C(F)(F)F)n2)cc1 [Compound A-51, 1-[[4-[5-(trifluoromethyl)-1,2,4-oxadiazol-3-yl]phenyl]methyl]pyrrolidine-2,5-dione] | ≥ 80 | ≥ 80 | ≥ 80 | ≥ 80
4 | 69 to 73 | CC1(C)CCCN(Cc2ccc(-c3noc(C(F)(F)F)n3)c(F)c2)C1=O [Compound A-54, 1-[[3-fluoro-4-[5-(trifluoromethyl)-1,2,4-oxadiazol-3-yl]phenyl]methyl]-3,3-dimethyl-piperidin-2-one] | ≥ 80 | ≥ 80 | ≥ 80 | ≥ 80
5 | 111 to 114 | CC(=O)N1CC(=O)N(Cc2ccc(-c3noc(C(F)(F)F)n3)cc2)C(=O)C1 [Compound A-55, 4-acetyl-1-[[4-[5-(trifluoromethyl)-1,2,4-oxadiazol-3-yl]phenyl]methyl]piperazine-2,6-dione] | ≥ 80 | ≥ 80 | ≥ 80 | ≥ 80
6 | 138 to 141 | CN(C)C(=O)N1CC(=O)N(Cc2ccc(-c3noc(C(F)(F)F)n3)cc2)C(=O)C1 [Compound A-56, N,N-dimethyl-3,5-dioxo-4-[[4-[5-(trifluoromethyl)-1,2,4-oxadiazol-3-yl]phenyl]methyl]piperazine-1-carboxamide] | ≥ 80 | ≥ 80 | ≥ 80 | ≥ 80
7 | 86 to 89 | O=C1CCON1Cc1ccc(-c2noc(C(F)(F)F)n2)c(F)c1 [Compound A-68, 2-[[3-fluoro-4-[5-(trifluoromethyl)-1,2,4-oxadiazol-3-yl]phenyl]methyl]isoxazolidin-3-one] | ≥ 80 | ≥ 80 | ≥ 80 | ≥ 80
8 | 69 to 73 | O=S1(=O)CCCN1Cc1ccc(-c2noc(C(F)(F)F)n2)cc1 [Compound B-1, 2-[[4-[5-(trifluoromethyl)-1,2,4-oxadiazol-3-yl]phenyl]methyl]-1,2-thiazolidine 1,1-dioxide] | ≥ 80 | ≥ 80 | ≥ 80 | ≥ 80
9 | 151 to 153 | O=C1CCCN1c1ccc(-c2noc(C(F)(F)F)n2)cc1 [Compound C-1, 1-[4-[5-(trifluoromethyl)-1,2,4-oxadiazol-3-yl]phenyl]pyrrolidin-2-one] | ≥ 80 | ≥ 80 | ≥ 80 | ≥ 80
10 | 74 to 77 | O=C1CCON1c1ccc(-c2noc(C(F)(F)F)n2)cc1 [Compound C-2, 2-[4-[5-(trifluoromethyl)-1,2,4-oxadiazol-3-yl]phenyl]isoxazolidin-3-one] | ≥ 80 | ≥ 80 | ≥ 80 | ≥ 80
